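Cells were grown in 96-well plates and exposed to each compound for 48 hours at five concentrations; endpoints were interpolated linearly between bracketing concentrations, or set to the highest concentration if not reached. Here, GI50 denotes the concentration required for 50% inhibition of growth. The concentration for full growth arrest is given as TGI.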
Assays:
Experiment in all cases: growth of human tumour cells (NCI), 48 h
OVCAR-4 ovarian = tested on: OVCAR-4 ovarian
U251 CNS = tested on: U251 CNS
ACHN renal = tested on: ACHN renal
HCC-2998 colon = tested on: HCC-2998 colon
RPMI-8226 leukemia = tested on: RPMI-8226 leukemia
UACC-257 melanoma = tested on: UACC-257 melanoma
SW-620 colon = tested on: SW-620 colon
HCT-15 colon = tested on: HCT-15 colon
HOP-92 NSCLC = tested on: HOP-92 NSCLC
HT29 colon = tested on: HT29 colon
SNB-75 CNS = tested on: SNB-75 CNS
SK-OV-3 ovarian = tested on: SK-OV-3 ovarian
NCI-H23 lung = tested on: NCI-H23 lung
NCI-H522 lung = tested on: NCI-H522 lung
NCI-H460 lung = tested on: NCI-H460 lung
MOLT-4 leukemia = tested on: MOLT-4 leukemia
SK-MEL-28 melanoma = tested on: SK-MEL-28 melanoma
TK-10 renal = tested on: TK-10 renal
MDA-MB-435 = tested on: MDA-MB-435
MDA-MB-231 breast = tested on: MDA-MB-231 breast
SR leukemia = tested on: SR leukemia
SK-MEL-5 melanoma = tested on: SK-MEL-5 melanoma
UO-31 renal = tested on: UO-31 renal
MALME-3M melanoma = tested on: MALME-3M melanoma
K-562 leukemia = tested on: K-562 leukemia
NCI-H226 lung = tested on: NCI-H226 lung
MCF7 breast = tested on: MCF7 breast
PC-3 prostate = tested on: PC-3 prostate
OVCAR-3 ovarian = tested on: OVCAR-3 ovarian
COLO 205 colon = tested on: COLO 205 colon
KM12 colon = tested on: KM12 colon
NCI/ADR-RES ovarian = tested on: NCI/ADR-RES ovarian
A549 NSCLC = tested on: A549 NSCLC
DU-145 prostate = tested on: DU-145 prostate
SK-MEL-2 melanoma = tested on: SK-MEL-2 melanoma
SF-295 CNS = tested on: SF-295 CNS
SF-268 CNS = tested on: SF-268 CNS
OVCAR-8 ovarian = tested on: OVCAR-8 ovarian
LOX IMVI melanoma = tested on: LOX IMVI melanoma
HS 578T breast = tested on: HS 578T breast
BT-549 breast = tested on: BT-549 breast
M14 melanoma = tested on: M14 melanoma
SF-539 CNS = tested on: SF-539 CNS
CAKI-1 renal = tested on: CAKI-1 renal
SN12C renal = tested on: SN12C renal
A498 renal = tested on: A498 renal
T-47D breast = tested on: T-47D breast
HCT-116 colon = tested on: HCT-116 colon
HOP-62 NSCLC = tested on: HOP-62 NSCLC
OVCAR-5 ovarian = tested on: OVCAR-5 ovarian
IGROV1 ovarian = tested on: IGROV1 ovarian
EKVX NSCLC = tested on: EKVX NSCLC
RXF 393 renal = tested on: RXF 393 renal
CCRF-CEM leukemia = tested on: CCRF-CEM leukemia
HL-60(TB) leukemia = tested on: HL-60(TB) leukemia
UACC-62 melanoma = tested on: UACC-62 melanoma
SNB-19 CNS = tested on: SNB-19 CNS
786-0 renal = tested on: 786-0 renal

Question: With `C=CC(=O)N1CCN(c2nc(=O)n(-c3c(C)ccnc3C(C)C)c3nc(-c4c(O)cccc4F)c(F)cc23)[C@@H](C)C1` as the compound, how does the GI50 (OVCAR-4 ovarian) read?
Answer: 35.8 µM

Question: What about the TGI (OVCAR-4 ovarian) of the same compound?
Answer: > 100 µM

Question: And the GI50 (U251 CNS)?
Answer: 48.7 µM

Question: What about the TGI (U251 CNS) of the same compound?
Answer: > 100 µM

Question: And the GI50 (ACHN renal)?
Answer: 40.9 µM

Question: And the TGI (ACHN renal)?
Answer: > 100 µM

Question: And the GI50 (HCC-2998 colon)?
Answer: 19.1 µM

Question: And the TGI (HCC-2998 colon)?
Answer: 35.9 µM

Question: What about the GI50 (RPMI-8226 leukemia) of the same compound?
Answer: 18.1 µM

Question: And the TGI (RPMI-8226 leukemia)?
Answer: > 90.9 µM

Question: What about the GI50 (UACC-257 melanoma) of the same compound?
Answer: > 56.2 µM

Question: What about the TGI (UACC-257 melanoma) of the same compound?
Answer: > 100 µM

Question: What about the GI50 (SW-620 colon) of the same compound?
Answer: 36.8 µM

Question: And the TGI (SW-620 colon)?
Answer: > 100 µM

Question: And the GI50 (HCT-15 colon)?
Answer: 29.5 µM

Question: And the TGI (HCT-15 colon)?
Answer: > 74.3 µM

Question: And the GI50 (HOP-92 NSCLC)?
Answer: 29.8 µM

Question: What about the TGI (HOP-92 NSCLC) of the same compound?
Answer: > 58.8 µM

Question: And the GI50 (HT29 colon)?
Answer: 35.9 µM

Question: What about the TGI (HT29 colon) of the same compound?
Answer: > 100 µM

Question: And the GI50 (SNB-75 CNS)?
Answer: 36.1 µM

Question: What about the TGI (SNB-75 CNS) of the same compound?
Answer: > 91.4 µM

Question: What about the GI50 (SK-OV-3 ovarian) of the same compound?
Answer: > 77.8 µM

Question: And the TGI (SK-OV-3 ovarian)?
Answer: > 100 µM

Question: What about the TGI (NCI-H23 lung) of the same compound?
Answer: > 47.2 µM

Question: What about the GI50 (NCI-H522 lung) of the same compound?
Answer: 29.8 µM

Question: What about the TGI (NCI-H522 lung) of the same compound?
Answer: > 100 µM

Question: And the GI50 (NCI-H460 lung)?
Answer: 43.4 µM

Question: What about the TGI (NCI-H460 lung) of the same compound?
Answer: > 100 µM

Question: And the GI50 (MOLT-4 leukemia)?
Answer: 18.7 µM

Question: And the TGI (MOLT-4 leukemia)?
Answer: 71 µM

Question: And the GI50 (SK-MEL-28 melanoma)?
Answer: > 58.7 µM

Question: And the TGI (SK-MEL-28 melanoma)?
Answer: > 100 µM

Question: And the GI50 (TK-10 renal)?
Answer: 23.8 µM

Question: And the TGI (TK-10 renal)?
Answer: > 90.9 µM

Question: What about the GI50 (MDA-MB-435) of the same compound?
Answer: 25.1 µM

Question: And the TGI (MDA-MB-435)?
Answer: 70 µM

Question: And the GI50 (MDA-MB-231 breast)?
Answer: 25.4 µM

Question: What about the TGI (MDA-MB-231 breast) of the same compound?
Answer: 85.2 µM

Question: What about the GI50 (SR leukemia) of the same compound?
Answer: 17.3 µM

Question: And the TGI (SR leukemia)?
Answer: 70.3 µM

Question: And the GI50 (SK-MEL-5 melanoma)?
Answer: 27.8 µM

Question: What about the TGI (SK-MEL-5 melanoma) of the same compound?
Answer: > 59.1 µM

Question: And the GI50 (UO-31 renal)?
Answer: > 62.3 µM

Question: And the TGI (UO-31 renal)?
Answer: > 100 µM

Question: And the GI50 (MALME-3M melanoma)?
Answer: 20.8 µM

Question: What about the TGI (MALME-3M melanoma) of the same compound?
Answer: 64 µM

Question: What about the GI50 (K-562 leukemia) of the same compound?
Answer: 23.2 µM

Question: What about the TGI (K-562 leukemia) of the same compound?
Answer: > 85 µM

Question: And the GI50 (NCI-H226 lung)?
Answer: 25.4 µM

Question: What about the TGI (NCI-H226 lung) of the same compound?
Answer: > 100 µM

Question: What about the GI50 (MCF7 breast) of the same compound?
Answer: 34.1 µM

Question: What about the TGI (MCF7 breast) of the same compound?
Answer: > 100 µM

Question: What about the GI50 (PC-3 prostate) of the same compound?
Answer: 31.8 µM

Question: What about the TGI (PC-3 prostate) of the same compound?
Answer: > 96.3 µM

Question: What about the GI50 (OVCAR-3 ovarian) of the same compound?
Answer: 30.1 µM

Question: What about the TGI (OVCAR-3 ovarian) of the same compound?
Answer: > 86 µM

Question: And the GI50 (COLO 205 colon)?
Answer: 39.9 µM

Question: And the TGI (COLO 205 colon)?
Answer: > 100 µM

Question: What about the GI50 (KM12 colon) of the same compound?
Answer: 23.4 µM

Question: What about the TGI (KM12 colon) of the same compound?
Answer: 54 µM

Question: What about the GI50 (NCI/ADR-RES ovarian) of the same compound?
Answer: > 100 µM

Question: What about the TGI (NCI/ADR-RES ovarian) of the same compound?
Answer: > 100 µM

Question: What about the GI50 (A549 NSCLC) of the same compound?
Answer: > 46.5 µM

Question: And the TGI (A549 NSCLC)?
Answer: > 77.2 µM

Question: What about the GI50 (DU-145 prostate) of the same compound?
Answer: 30.9 µM

Question: What about the TGI (DU-145 prostate) of the same compound?
Answer: 98.3 µM

Question: What about the GI50 (SK-MEL-2 melanoma) of the same compound?
Answer: 31 µM

Question: And the TGI (SK-MEL-2 melanoma)?
Answer: > 78 µM

Question: What about the GI50 (SF-295 CNS) of the same compound?
Answer: 44.4 µM

Question: And the TGI (SF-295 CNS)?
Answer: > 100 µM

Question: What about the GI50 (SF-268 CNS) of the same compound?
Answer: 35.6 µM

Question: And the TGI (SF-268 CNS)?
Answer: > 100 µM

Question: What about the GI50 (OVCAR-8 ovarian) of the same compound?
Answer: 30.9 µM

Question: What about the TGI (OVCAR-8 ovarian) of the same compound?
Answer: > 100 µM

Question: What about the GI50 (LOX IMVI melanoma) of the same compound?
Answer: 16.9 µM

Question: What about the TGI (LOX IMVI melanoma) of the same compound?
Answer: 38.1 µM

Question: And the GI50 (HS 578T breast)?
Answer: 45.7 µM

Question: What about the TGI (HS 578T breast) of the same compound?
Answer: > 100 µM

Question: And the GI50 (BT-549 breast)?
Answer: 15.8 µM

Question: And the TGI (BT-549 breast)?
Answer: > 51.3 µM

Question: And the GI50 (M14 melanoma)?
Answer: 17 µM

Question: What about the TGI (M14 melanoma) of the same compound?
Answer: > 52.6 µM

Question: And the GI50 (SF-539 CNS)?
Answer: 23.3 µM

Question: And the TGI (SF-539 CNS)?
Answer: 64.2 µM

Question: And the GI50 (CAKI-1 renal)?
Answer: 40.3 µM

Question: What about the TGI (CAKI-1 renal) of the same compound?
Answer: > 100 µM

Question: What about the GI50 (SN12C renal) of the same compound?
Answer: 38 µM

Question: And the TGI (SN12C renal)?
Answer: > 100 µM

Question: What about the GI50 (A498 renal) of the same compound?
Answer: 11.8 µM

Question: What about the TGI (A498 renal) of the same compound?
Answer: > 54.1 µM

Question: What about the GI50 (T-47D breast) of the same compound?
Answer: 40.9 µM

Question: What about the TGI (T-47D breast) of the same compound?
Answer: > 100 µM

Question: And the GI50 (HCT-116 colon)?
Answer: 15.1 µM

Question: What about the TGI (HCT-116 colon) of the same compound?
Answer: 36.3 µM

Question: And the GI50 (HOP-62 NSCLC)?
Answer: < 0.0291 µM

Question: And the TGI (HOP-62 NSCLC)?
Answer: > 66.5 µM

Question: And the GI50 (OVCAR-5 ovarian)?
Answer: 62.9 µM

Question: And the TGI (OVCAR-5 ovarian)?
Answer: > 100 µM

Question: And the GI50 (IGROV1 ovarian)?
Answer: > 44.7 µM

Question: And the TGI (IGROV1 ovarian)?
Answer: > 73.9 µM

Question: What about the GI50 (EKVX NSCLC) of the same compound?
Answer: 48.6 µM

Question: What about the TGI (EKVX NSCLC) of the same compound?
Answer: > 100 µM

Question: And the GI50 (RXF 393 renal)?
Answer: 17.7 µM

Question: And the TGI (RXF 393 renal)?
Answer: 59.2 µM

Question: And the GI50 (CCRF-CEM leukemia)?
Answer: 25.7 µM

Question: And the TGI (CCRF-CEM leukemia)?
Answer: 83.1 µM

Question: And the GI50 (HL-60(TB) leukemia)?
Answer: 20.5 µM

Question: What about the TGI (HL-60(TB) leukemia) of the same compound?
Answer: 53.8 µM

Question: And the GI50 (UACC-62 melanoma)?
Answer: 28.4 µM

Question: What about the TGI (UACC-62 melanoma) of the same compound?
Answer: > 73.6 µM

Question: And the GI50 (SNB-19 CNS)?
Answer: 57.8 µM

Question: And the TGI (SNB-19 CNS)?
Answer: > 100 µM

Question: What about the GI50 (786-0 renal) of the same compound?
Answer: 14.7 µM

Question: And the TGI (786-0 renal)?
Answer: 36.3 µM

Reference: PubChem BioAssay (NCI)
